Data as given in the kinase profiling compilation of Christmann-Franck et al. (2016).

Columns and labels:
Test in all cases: KINOMEscan competition binding
Conditions in all cases: compound 10.0 µM
[1] = molecular target: BMPR1A (human) (UniProt P36894)
[2] = molecular target: PIM3 (human) (UniProt Q86V86)
[3] = molecular target: PIK3CG (human) (UniProt P48736)
[4] = molecular target: IGF1R (human) (UniProt P08069)
[5] = molecular target: ADCK3 (human) (UniProt Q8NI60)
[6] = system: BMX (human), P51813 [V600E]
[7] = molecular target: MARK1 (human) (UniProt Q9P0L2)
[8] = system: EGFR (human), P00533 [G719C]
[9] = molecular target: PRKCD (human) (UniProt Q05655)
[10] = molecular target: TLK2 (human) (UniProt Q86UE8)
[11] = molecular target: MAP3K10 (human) (UniProt Q02779)
[12] = molecular target: BRSK2 (human) (UniProt Q8IWQ3)
[13] = molecular target: CLK2 (human) (UniProt P49760)
[14] = system: FLT3 (human), P36888 [D835Y]
[15] = molecular target: MAPK4 (human) (UniProt P31152)
[16] = molecular target: STK32A (human) (UniProt Q8WU08)
[17] = molecular target: CDK5 (human) (UniProt Q00535)
[18] = molecular target: EPHA8 (human) (UniProt P29322)
[19] = system: RET (human), P07949 [V804L]
[20] = molecular target: CRK2 (P.falciparum) (UniProt P61075)
[21] = system: PIK3CA (human), P42336 [H1047L]
[22] = molecular target: MAP4K1 (human) (UniProt Q92918)
[23] = molecular target: DAPK3 (human) (UniProt O43293)
[24] = molecular target: MAPK13 (human) (UniProt O15264)
[25] = molecular target: EPHA3 (human) (UniProt P29320)
[26] = molecular target: CDC42BPA (human) (UniProt Q5VT25)
[27] = molecular target: SNRK (human) (UniProt Q9NRH2)
[28] = molecular target: GRK4 (human) (UniProt P32298)
[29] = molecular target: PDGFRA (human) (UniProt P16234)
[30] = molecular target: TRPM6 (human) (UniProt Q9BX84)
[31] = molecular target: BMPR2 (human) (UniProt Q13873)
[32] = molecular target: PRKAA1 (human) (UniProt Q13131)
[33] = molecular target: TXK (human) (UniProt P42681)
[34] = molecular target: RIOK2 (human) (UniProt Q9BVS4)
[35] = molecular target: MAPKAPK2 (human) (UniProt P49137)
[36] = molecular target: MAP3K15 (human) (UniProt Q6ZN16)
[37] = molecular target: PRKACB (human) (UniProt P22694)
[38] = molecular target: CDK14 (human) (UniProt O94921)
[39] = molecular target: NEK11 (human) (UniProt Q8NG66)
[40] = molecular target: CLK1 (human) (UniProt P49759)
Chain of CLK1 (human) (P49759 whole entry, looked up): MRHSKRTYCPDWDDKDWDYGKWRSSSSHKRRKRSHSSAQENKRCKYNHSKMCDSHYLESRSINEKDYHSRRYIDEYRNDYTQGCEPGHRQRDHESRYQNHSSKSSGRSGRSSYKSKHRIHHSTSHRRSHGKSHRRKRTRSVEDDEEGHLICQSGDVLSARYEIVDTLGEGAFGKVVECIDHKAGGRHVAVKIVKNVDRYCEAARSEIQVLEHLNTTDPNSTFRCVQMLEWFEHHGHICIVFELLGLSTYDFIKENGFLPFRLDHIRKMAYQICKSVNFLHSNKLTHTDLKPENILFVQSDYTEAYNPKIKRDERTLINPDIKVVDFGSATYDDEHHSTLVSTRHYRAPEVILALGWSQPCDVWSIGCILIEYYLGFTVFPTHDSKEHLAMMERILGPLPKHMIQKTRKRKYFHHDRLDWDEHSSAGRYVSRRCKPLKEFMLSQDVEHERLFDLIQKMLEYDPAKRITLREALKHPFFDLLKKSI

Chain of BMX (human), P51813 [V600E] (P51813 whole entry, looked up, stated change not applied): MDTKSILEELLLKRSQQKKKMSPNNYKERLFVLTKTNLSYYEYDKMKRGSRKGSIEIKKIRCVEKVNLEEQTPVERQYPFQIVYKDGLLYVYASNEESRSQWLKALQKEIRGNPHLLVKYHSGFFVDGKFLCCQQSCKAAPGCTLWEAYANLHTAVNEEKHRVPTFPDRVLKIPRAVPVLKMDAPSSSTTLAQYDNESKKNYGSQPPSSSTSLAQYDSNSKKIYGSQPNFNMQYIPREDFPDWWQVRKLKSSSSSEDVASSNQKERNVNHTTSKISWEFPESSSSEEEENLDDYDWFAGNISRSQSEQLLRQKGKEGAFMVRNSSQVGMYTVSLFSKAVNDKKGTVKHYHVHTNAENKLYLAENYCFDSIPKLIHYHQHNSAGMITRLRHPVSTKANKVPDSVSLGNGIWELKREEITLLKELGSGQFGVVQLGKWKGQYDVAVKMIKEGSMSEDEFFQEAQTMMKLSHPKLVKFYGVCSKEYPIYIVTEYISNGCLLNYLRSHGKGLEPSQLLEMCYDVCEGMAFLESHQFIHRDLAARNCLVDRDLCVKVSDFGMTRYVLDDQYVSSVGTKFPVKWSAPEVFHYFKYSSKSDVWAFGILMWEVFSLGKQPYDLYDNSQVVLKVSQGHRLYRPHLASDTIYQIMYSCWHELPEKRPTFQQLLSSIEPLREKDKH
Chain of MAPKAPK2 (human) (P49137 whole entry, looked up): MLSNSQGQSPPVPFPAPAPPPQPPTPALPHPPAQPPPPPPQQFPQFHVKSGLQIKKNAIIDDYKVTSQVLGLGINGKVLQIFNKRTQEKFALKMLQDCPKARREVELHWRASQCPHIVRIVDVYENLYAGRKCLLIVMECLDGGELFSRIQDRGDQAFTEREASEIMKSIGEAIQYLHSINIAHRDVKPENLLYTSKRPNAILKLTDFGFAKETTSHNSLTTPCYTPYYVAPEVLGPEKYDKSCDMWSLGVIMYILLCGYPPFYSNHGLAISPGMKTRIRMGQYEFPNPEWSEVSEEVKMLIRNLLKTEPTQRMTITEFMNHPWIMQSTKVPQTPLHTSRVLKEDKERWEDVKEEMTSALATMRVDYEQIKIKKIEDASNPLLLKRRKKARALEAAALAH
Chain of ADCK3 (human) (Q8NI60 whole entry, looked up): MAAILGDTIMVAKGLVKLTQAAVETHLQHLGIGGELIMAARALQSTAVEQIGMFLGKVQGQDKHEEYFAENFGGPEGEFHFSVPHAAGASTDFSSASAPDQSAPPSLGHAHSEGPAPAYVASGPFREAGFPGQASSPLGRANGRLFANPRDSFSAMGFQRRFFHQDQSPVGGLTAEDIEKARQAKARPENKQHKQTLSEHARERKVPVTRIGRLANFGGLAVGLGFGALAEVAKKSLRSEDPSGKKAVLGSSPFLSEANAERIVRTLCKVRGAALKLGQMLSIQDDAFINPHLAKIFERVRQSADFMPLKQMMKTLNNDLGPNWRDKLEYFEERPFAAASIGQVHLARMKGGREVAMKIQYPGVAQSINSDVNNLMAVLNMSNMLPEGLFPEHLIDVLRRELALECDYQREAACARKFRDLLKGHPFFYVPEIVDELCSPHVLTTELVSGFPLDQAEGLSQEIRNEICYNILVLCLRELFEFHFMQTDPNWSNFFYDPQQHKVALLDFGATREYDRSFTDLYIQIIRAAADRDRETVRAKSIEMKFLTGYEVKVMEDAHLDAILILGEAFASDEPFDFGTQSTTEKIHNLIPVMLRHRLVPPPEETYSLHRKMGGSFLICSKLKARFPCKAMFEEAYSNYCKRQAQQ
Chain of TRPM6 (human) (Q9BX84 whole entry, looked up): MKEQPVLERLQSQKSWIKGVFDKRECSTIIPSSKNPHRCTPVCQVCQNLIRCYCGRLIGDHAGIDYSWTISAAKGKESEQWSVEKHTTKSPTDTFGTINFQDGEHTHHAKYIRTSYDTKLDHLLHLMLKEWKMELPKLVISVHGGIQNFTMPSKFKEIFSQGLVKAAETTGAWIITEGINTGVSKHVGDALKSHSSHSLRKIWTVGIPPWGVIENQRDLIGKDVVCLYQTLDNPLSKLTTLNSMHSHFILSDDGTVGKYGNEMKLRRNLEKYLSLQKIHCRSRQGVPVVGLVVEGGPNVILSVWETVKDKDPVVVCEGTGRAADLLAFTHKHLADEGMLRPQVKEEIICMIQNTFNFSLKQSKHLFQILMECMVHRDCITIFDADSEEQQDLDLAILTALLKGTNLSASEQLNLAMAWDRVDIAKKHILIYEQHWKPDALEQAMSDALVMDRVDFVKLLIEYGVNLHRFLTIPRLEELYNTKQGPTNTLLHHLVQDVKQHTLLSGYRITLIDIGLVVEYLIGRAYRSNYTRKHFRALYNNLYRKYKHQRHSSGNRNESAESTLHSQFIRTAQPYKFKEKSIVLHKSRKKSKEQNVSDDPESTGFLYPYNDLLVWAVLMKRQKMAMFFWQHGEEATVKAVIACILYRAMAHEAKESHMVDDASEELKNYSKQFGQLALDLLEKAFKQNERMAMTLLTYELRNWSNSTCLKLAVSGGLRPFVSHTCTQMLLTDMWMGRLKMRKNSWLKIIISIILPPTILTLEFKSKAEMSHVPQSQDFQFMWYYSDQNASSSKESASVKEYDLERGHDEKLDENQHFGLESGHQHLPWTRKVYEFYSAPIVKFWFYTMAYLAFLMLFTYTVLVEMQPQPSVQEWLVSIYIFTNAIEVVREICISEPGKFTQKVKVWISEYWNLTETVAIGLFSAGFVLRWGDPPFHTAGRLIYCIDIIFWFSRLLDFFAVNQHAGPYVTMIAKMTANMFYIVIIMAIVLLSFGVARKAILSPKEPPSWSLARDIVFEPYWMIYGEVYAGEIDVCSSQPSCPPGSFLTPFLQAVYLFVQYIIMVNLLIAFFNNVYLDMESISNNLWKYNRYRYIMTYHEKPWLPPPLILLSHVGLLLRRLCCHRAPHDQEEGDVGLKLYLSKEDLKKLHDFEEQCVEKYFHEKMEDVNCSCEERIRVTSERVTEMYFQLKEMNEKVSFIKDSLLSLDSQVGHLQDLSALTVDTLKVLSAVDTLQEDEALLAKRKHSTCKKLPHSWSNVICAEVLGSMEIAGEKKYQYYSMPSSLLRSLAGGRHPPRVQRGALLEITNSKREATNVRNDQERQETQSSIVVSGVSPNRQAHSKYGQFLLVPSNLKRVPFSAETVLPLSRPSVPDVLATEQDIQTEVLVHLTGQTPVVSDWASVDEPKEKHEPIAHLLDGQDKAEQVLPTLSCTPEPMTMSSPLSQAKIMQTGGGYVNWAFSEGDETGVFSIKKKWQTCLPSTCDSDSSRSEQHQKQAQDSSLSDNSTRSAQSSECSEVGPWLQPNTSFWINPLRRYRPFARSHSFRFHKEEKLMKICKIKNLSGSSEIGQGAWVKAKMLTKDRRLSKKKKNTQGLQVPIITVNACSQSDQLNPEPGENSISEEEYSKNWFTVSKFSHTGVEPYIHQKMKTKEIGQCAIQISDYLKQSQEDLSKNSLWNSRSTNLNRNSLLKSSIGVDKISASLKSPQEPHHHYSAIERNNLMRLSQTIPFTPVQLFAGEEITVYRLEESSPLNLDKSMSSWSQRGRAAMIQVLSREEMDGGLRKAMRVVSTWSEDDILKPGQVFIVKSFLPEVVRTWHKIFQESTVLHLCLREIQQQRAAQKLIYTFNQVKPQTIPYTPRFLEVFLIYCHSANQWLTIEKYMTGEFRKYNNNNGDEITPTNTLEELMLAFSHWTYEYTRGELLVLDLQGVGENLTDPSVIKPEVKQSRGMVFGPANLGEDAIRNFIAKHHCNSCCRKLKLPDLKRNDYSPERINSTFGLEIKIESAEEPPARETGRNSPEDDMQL
Chain of MAP4K1 (human) (Q92918 whole entry, looked up): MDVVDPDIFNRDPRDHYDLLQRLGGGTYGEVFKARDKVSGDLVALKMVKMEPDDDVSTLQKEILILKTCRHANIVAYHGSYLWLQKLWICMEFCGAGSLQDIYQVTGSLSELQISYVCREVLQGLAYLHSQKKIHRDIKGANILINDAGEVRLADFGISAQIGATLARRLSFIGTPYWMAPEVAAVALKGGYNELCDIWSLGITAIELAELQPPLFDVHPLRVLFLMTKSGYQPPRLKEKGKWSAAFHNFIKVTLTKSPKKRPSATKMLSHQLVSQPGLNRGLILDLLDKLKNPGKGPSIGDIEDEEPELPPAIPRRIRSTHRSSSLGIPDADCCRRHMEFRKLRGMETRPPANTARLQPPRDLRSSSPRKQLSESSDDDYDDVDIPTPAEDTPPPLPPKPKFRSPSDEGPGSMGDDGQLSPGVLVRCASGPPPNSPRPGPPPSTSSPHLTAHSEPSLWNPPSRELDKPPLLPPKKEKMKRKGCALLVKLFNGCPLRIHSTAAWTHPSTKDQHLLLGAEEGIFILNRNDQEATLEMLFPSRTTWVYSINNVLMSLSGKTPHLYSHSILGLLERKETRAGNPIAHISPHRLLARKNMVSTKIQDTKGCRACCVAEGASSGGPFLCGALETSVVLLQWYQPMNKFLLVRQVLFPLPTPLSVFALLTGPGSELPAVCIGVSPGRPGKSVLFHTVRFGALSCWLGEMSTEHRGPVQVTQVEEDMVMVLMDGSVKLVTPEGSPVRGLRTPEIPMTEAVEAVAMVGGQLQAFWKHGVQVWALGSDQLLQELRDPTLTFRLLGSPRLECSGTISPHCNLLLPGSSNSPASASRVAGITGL

| Compound | kinase still bound, per cent of control [1] | kinase still bound, per cent of control [2] | kinase still bound, per cent of control [3] | kinase still bound, per cent of control [4] | kinase still bound, per cent of control [5] | kinase still bound, per cent of control [7] | kinase still bound, per cent of control [9] | kinase still bound, per cent of control [10] | kinase still bound, per cent of control [11] | kinase still bound, per cent of control [12] | kinase still bound, per cent of control [13] | kinase still bound, per cent of control [15] | kinase still bound, per cent of control [16] | kinase still bound, per cent of control [17] | kinase still bound, per cent of control [18] | kinase still bound, per cent of control [19] | kinase still bound, per cent of control [20] | kinase still bound, per cent of control [21] | kinase still bound, per cent of control [22] | kinase still bound, per cent of control [23] | other results |
| --- | --- | --- | --- | --- | --- | --- | --- | --- | --- | --- | --- | --- | --- | --- | --- | --- | --- | --- | --- | --- | --- |
| CCCS(=O)(=O)Nc1ccc(F)c(C(=O)c2c[nH]c3ncc(Cl)cc23)c1F | 13% | 65% | 83% | 91% | 92% | 74% | 100% | 75% | 87% | 86% | 10% | 100% | 85% | 57% | 95% | 96% | 91% | 100% | 70% | 85% | kinase still bound, per cent of control [6]: 0%; kinase still bound, per cent of control [8]: 50%; kinase still bound, per cent of control [14]: 31%; kinase still bound, per cent of control [24]: 85%; kinase still bound, per cent of control [25]: 65%; kinase still bound, per cent of control [26]: 96%; kinase still bound, per cent of control [27]: 100%; kinase still bound, per cent of control [28]: 100%; kinase still bound, per cent of control [29]: 0.2%; kinase still bound, per cent of control [30]: 99%; kinase still bound, per cent of control [31]: 67%; kinase still bound, per cent of control [32]: 64%; kinase still bound, per cent of control [33]: 69%; kinase still bound, per cent of control [34]: 3%; kinase still bound, per cent of control [35]: 100%; kinase still bound, per cent of control [36]: 74%; kinase still bound, per cent of control [37]: 100%; kinase still bound, per cent of control [38]: 100% |
| CCc1nc(-c2cccc(C)c2)c(-c2ccnc(NC(=O)c3ccccc3)c2)s1 | 14% | 86% | 100% | 100% | 0.2% | 100% | 50% | 87% | 100% | 95% | 61% | 90% | 9% | 100% | 89% | 99% | 100% | 100% | 86% | 83% | kinase still bound, per cent of control [6]: 23%; kinase still bound, per cent of control [39]: 100%; kinase still bound, per cent of control [25]: 69%; kinase still bound, per cent of control [26]: 82%; kinase still bound, per cent of control [27]: 100%; kinase still bound, per cent of control [28]: 100%; kinase still bound, per cent of control [29]: 84%; kinase still bound, per cent of control [30]: 100%; kinase still bound, per cent of control [31]: 90%; kinase still bound, per cent of control [32]: 81%; kinase still bound, per cent of control [33]: 75%; kinase still bound, per cent of control [34]: 92%; kinase still bound, per cent of control [35]: 100%; kinase still bound, per cent of control [40]: 92%; kinase still bound, per cent of control [36]: 100%; kinase still bound, per cent of control [37]: 95%; kinase still bound, per cent of control [38]: 99% |
| CCN(CCO)CCCOc1ccc2c(Nc3cc(CC(=O)Nc4cccc(F)c4)[nH]n3)ncnc2c1 | 29% | 100% | 100% | 100% | 85% | 98% | 91% | 100% | 92% | 100% | 67% | 100% | 100% | 100% | 90% | 2% | 100% | 73% | 76% | 82% | kinase still bound, per cent of control [6]: 100%; kinase still bound, per cent of control [39]: 98%; kinase still bound, per cent of control [25]: 62%; kinase still bound, per cent of control [26]: 100%; kinase still bound, per cent of control [27]: 100%; kinase still bound, per cent of control [28]: 100%; kinase still bound, per cent of control [29]: 0%; kinase still bound, per cent of control [30]: 100%; kinase still bound, per cent of control [32]: 64%; kinase still bound, per cent of control [33]: 100%; kinase still bound, per cent of control [34]: 58%; kinase still bound, per cent of control [35]: 100%; kinase still bound, per cent of control [40]: 69%; kinase still bound, per cent of control [36]: 100%; kinase still bound, per cent of control [37]: 100%; kinase still bound, per cent of control [38]: 100% |
| CC(=O)c1c(C)c2cnc(Nc3ccc(N4CCNCC4)cn3)nc2n(C2CCCC2)c1=O | 42% | 82% | 6.8% | 81% | 63% | 35% | 90% | 89% | 93% | 80% | 0.35% | 87% | 87% | 48% | 93% | 65% | 19% | 25% | 47% | 0.45% | kinase still bound, per cent of control [14]: 1.6%; kinase still bound, per cent of control [39]: 31%; kinase still bound, per cent of control [25]: 66%; kinase still bound, per cent of control [26]: 98%; kinase still bound, per cent of control [27]: 94%; kinase still bound, per cent of control [28]: 26%; kinase still bound, per cent of control [30]: 91%; kinase still bound, per cent of control [32]: 22%; kinase still bound, per cent of control [34]: 56%; kinase still bound, per cent of control [40]: 1.2%; kinase still bound, per cent of control [36]: 11%; kinase still bound, per cent of control [37]: 100%; kinase still bound, per cent of control [38]: 5% |
